Values of other authors in patent US6793912B2, “Treatment of cancers by inhalation of stable platinum-containing formulations” (Transave Inc., priority 2001, dated 2004).

Conditions: administered by inhalation vs intravenously

N.N.[Cl][Pt][Cl] [Cisplatin, cis-diamminedichloroplatinum(II)]
dose required to elicit a response in animal models, more effective in the lung than intravenously: 10-100 fold
